Where two headings read alike, the source gives them in different places. One block for each compound: values may come before it. Bridge positions count the residues as written; N and C are the ends. Square brackets hold non-standard residues; d marks the D form. Peptide text beside a SMILES is read from it. R8 = C=CCCCCCC[C@@](C)(N)C(=O)O; S5 = C=CCCC[C@](C)(N)C(=O)O
Columns and labels:
[1] = target: T1, Mdm4 (Homo sapiens, UniProt O15151); set-up: method as in 3 sources, ref 10 = [10]; PMID 23214419; doi:10.1021/cb3005148; Brown C. J. et al. Stapled Peptides with Improved Potency and Specificity That Activate p53 . ACS Chem. Biol . 8 , 506 – 512 ( 2013 ). 23214419 10.1021/cb3005148 ||| ref 11 = [11]; PMID 23946421; doi:10.1073/pnas; Chang Y. S. et al. Stapled α−helical peptide drug development: A potent dual inhibitor of MDM2 and MDMX for p53-dependent cancer therapy . Proc. Natl. Acad. Sci . 201303002 (2013). 10.1073/pnas .13030 ||| ref 6 = [6]; PMID 14704432; doi:10.1126/science.1092472; Vassilev L. T. et al. In vivo activation of the p53 pathway by small-molecule antagonists of MDM2 . Science 303 , 844 – 848 ( 2004 ). 14704432 10.1126/science.1092472; settings: competition assay, cited from earlier work
T1 sequence (O15151 1-490): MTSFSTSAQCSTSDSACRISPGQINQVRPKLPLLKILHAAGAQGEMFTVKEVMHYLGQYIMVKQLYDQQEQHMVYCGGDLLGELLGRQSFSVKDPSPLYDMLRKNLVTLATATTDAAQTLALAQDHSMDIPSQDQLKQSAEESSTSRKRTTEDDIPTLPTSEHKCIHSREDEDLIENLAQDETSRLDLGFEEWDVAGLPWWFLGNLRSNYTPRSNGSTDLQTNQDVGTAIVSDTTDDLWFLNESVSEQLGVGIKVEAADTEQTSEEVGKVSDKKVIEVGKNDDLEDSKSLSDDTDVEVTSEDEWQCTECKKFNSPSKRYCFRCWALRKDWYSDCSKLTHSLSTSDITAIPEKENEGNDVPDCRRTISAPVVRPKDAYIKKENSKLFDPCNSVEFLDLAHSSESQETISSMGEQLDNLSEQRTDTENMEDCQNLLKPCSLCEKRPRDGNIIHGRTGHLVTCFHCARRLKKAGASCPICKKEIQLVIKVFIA

[2] = test system: p53 responsive β-galactosidase reporter in T22 cells; test: T22 p53 β-galactosidase based reporter assay; format: cell-based; settings: 18 h treatment, text points to Fig. 2a in Brown et al., 2013
[3] = target: T2, Mdm2 (Homo sapiens, UniProt Q00987); test: Lysate CETSA, thermal stabilisation of Mdm2 in AML2 cell lysates; format: binding; set-up: endogenous in cells; host or cells: OCI/AML-2 (AML2) cells, pre-treated with MG132; settings: Fig. 1a, 10 μM in 5 mg/ml AML2 cell lysates, three independent replicates
T2 sequence (Q00987 whole entry): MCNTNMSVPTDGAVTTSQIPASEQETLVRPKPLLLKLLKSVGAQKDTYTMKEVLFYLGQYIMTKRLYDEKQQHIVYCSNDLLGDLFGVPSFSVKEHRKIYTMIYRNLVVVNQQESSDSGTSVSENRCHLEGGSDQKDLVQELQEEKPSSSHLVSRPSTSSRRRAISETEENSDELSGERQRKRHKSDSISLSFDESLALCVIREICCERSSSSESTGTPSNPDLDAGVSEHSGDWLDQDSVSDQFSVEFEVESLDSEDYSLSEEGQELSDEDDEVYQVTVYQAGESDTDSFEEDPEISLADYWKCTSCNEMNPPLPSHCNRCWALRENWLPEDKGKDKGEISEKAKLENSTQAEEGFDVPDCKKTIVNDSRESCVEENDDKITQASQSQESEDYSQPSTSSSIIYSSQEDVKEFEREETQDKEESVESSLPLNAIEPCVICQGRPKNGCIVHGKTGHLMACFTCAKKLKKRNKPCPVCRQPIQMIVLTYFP

[4] = target: T1, Mdm4; test: Lysate CETSA, thermal stabilisation of Mdm4 in AML2 cell lysates; format: binding; set-up: endogenous in cells; host or cells: OCI/AML-2 (AML2) cells, pre-treated with MG132
[5] = target: Mdm4 (human (endogenous in OCI/AML-2)) (UniProt O15151); test: cellular thermal shift assay (CETSA); lysate CETSA: peptides at 10 uM added to 5 mg/ml AML2 cell lysate (kinase buffer: 25 mM Tris pH 7.4, 10 mM MgCl2, 2 mM DTT), 15 min at room temperature, heated 2 min, soluble protein by Western blot; dTm50 against the control
[6] = target: T1, Mdm4; test: Whole cell CETSA, Mdm4; settings: whole cells 25 μM
[7] = target: T2, Mdm2; set-up: method as in 3 sources, ref 10 = [10]; PMID 23214419; doi:10.1021/cb3005148; Brown C. J. et al. Stapled Peptides with Improved Potency and Specificity That Activate p53 . ACS Chem. Biol . 8 , 506 – 512 ( 2013 ). 23214419 10.1021/cb3005148 ||| ref 11 = [11]; PMID 23946421; doi:10.1073/pnas; Chang Y. S. et al. Stapled α−helical peptide drug development: A potent dual inhibitor of MDM2 and MDMX for p53-dependent cancer therapy . Proc. Natl. Acad. Sci . 201303002 (2013). 10.1073/pnas .13030 ||| ref 6 = [6]; PMID 14704432; doi:10.1126/science.1092472; Vassilev L. T. et al. In vivo activation of the p53 pathway by small-molecule antagonists of MDM2 . Science 303 , 844 – 848 ( 2004 ). 14704432 10.1126/science.1092472; settings: competition assay, cited from earlier work
[8] = target: T2, Mdm2; test: Whole cell CETSA, Mdm2
[9] = target: Mdm2 (human (endogenous in OCI/AML-2)) (UniProt Q00987); test: cellular thermal shift assay (CETSA); lysate CETSA: peptides at 10 uM added to 5 mg/ml AML2 cell lysate (kinase buffer: 25 mM Tris pH 7.4, 10 mM MgCl2, 2 mM DTT), 15 min at room temperature, heated 2 min, soluble protein by Western blot; dTm50 against the control
Sequence of Mdm2 (human (endogenous in OCI/AML-2)) (Q00987 whole entry): as above

[10] = target: Mdm4 (human (endogenous in OCI/AML-2)) (UniProt O15151); test: cellular thermal shift assay (CETSA); whole cell CETSA: OCI/AML-2 cells pre-treated with 10 uM MG132 for 1 h, then 25 uM Staplin-2 for 4 h, intact cells heated 2 min, lysed by freeze/thaw, soluble protein by Western blot; compared with the lysate CETSA
[11] = target: Mdm2 (human (endogenous in OCI/AML-2)) (UniProt Q00987); test: as above
[12] = no reference number printed in the cell, footnote: IC50s are obtained from the references indicated

Compound: Ac-^1LTFXrEYWAQ(Cba)XSSAA^14-NH2 (sidechain bridge or staple) [ATSP-7041, reference compound]
- IC50 [1]: 2310 nM
- p53 activation measured by β-galactosidase activity with increasing concentrations [2]: correspondingly increasing p53 activity and plateaued off at maxima

- ΔTm at 10 µM ([3]; human, 0.25 h, versus control, read-out: Mdm2: ΔTm50 (±95% CI)): 6.76 °C
- ΔTm at 10 µM ([4]; human, 0.25 h, Fig. 1b, 10 μM in 5 mg/ml AML2 cell lysates, versus control, three independent replicates, read-out: Mdm4: ΔTm50 (±95% CI)): 5.48 °C
Compound: CC(=O)N[C@H](C(=O)N[C@@H](CO)C(=O)N[C@@H](Cc1ccccc1)C(=O)N[C@]1(C)CCCCCCC=CCCC[C@@](C)(C(N)=O)NC(=O)[C@H](CC(C)C)NC(=O)[C@H](CC(C)C)NC(=O)[C@H](C)NC(=O)[C@H](Cc2c[nH]c3ccccc23)NC(=O)[C@H](Cc2ccc(O)cc2)NC(=O)[C@H](CCC(=O)O)NC1=O)[C@@H](C)O [Staplin]
- IC50 [1]: 660 ± 60 nM

- decrease in thermal shift against unlabelled ATSP-7041 [5]: 0.4 °C
Compound: FAM-labelled ATSP-7041 (peptide)

- ΔΔTm50 (±95% CI) Mdm4, lysate versus whole cell ([6]; Fig. 3b): 3.58 °C
- mean thermal shift from the whole cell CETSA as % of the mean thermal shift for the cell lysate CETSA, Mdm4 [6]: 33%
- Mdm2: ΔTm50 (±95% CI) ([3]; versus control): 6.58 °C
- ΔΔTm50 (±95% CI) Mdm2, lysate versus whole cell ([8]; Fig. 3b, whole cells 25 μM): 4.01 °C
- mean thermal shift from the whole cell CETSA as % of the mean thermal shift for the cell lysate CETSA, Mdm2 ([8]; whole cells 25 μM): 40%
- Mdm4: ΔTm50 (±95% CI) ([4]; Fig. 1b, 10 μM in 5 mg/ml AML2 cell lysates, versus control, three independent replicates): 5.44 °C
Compound: Ac-^1TSFXrEYW(6Cl)WALLXs^11-NH2 (sidechain bridge or staple) [Staplin-2]
- IC50 [7]: 320 ± 20 nM
- IC50 [1]: 3490 ± 630 nM
- p53 activation measured by β-galactosidase activity with increasing concentrations [2]: correspondingly increasing p53 activity and plateaued off at maxima

Compound: COc1ccc(C2=N[C@@H](c3ccc(Cl)cc3)[C@@H](c3ccc(Cl)cc3)N2C(=O)N2CCNC(=O)C2)c(OC(C)C)c1 [Nutlin-3, nutlin-3, reference compound]
- Mdm2: Tm50 (mean +95% CI −95% CI) ([3]; 15 min room temperature, heated 2 min, Western blot): 55.9 °C
- Mdm2 ΔΔTm50 (±95% CI), lysate versus whole cell ([8]; Fig. 3a, 10 μM): 0.24 ± 1.42 °C

- Mdm4 ΔTm50 (±95% CI) ([4]; Fig. 2c, labelled and unlabelled stapled peptides, AML2 cell extracts, 15 min): 1.11 (1.65) °C
Compound: CC(C)C[C@H](NC(=O)c1ccc2c(c1)C(=O)OC21c2ccc(O)cc2Oc2cc(O)ccc21)C(=O)N[C@H](C(=O)N[C@@H](Cc1ccccc1)C(=O)N[C@]1(C)CCCCCCC=CCCC[C@@](C)(C(=O)N[C@@H](CO)C(=O)N[C@@H](C)C(=O)N[C@@H](C)C(N)=O)NC(=O)[C@H](CC2CCC2)NC(=O)[C@H](CCC(N)=O)NC(=O)[C@H](C)NC(=O)[C@H](Cc2c[nH]c3ccccc23)NC(=O)[C@H](Cc2ccc(O)cc2)NC(=O)[C@H](CCC(=O)O)NC1=O)[C@@H](C)O [ATSP-7041 ^FAM]

Compound: CC(=O)N[C@H](C(=O)N[C@@H](CO)C(=O)N[C@@H](C)C(=O)N[C@]1(C)CCCCCCC=CCCC[C@@](C)(C(N)=O)NC(=O)[C@H](C)NC(=O)[C@H](CC(C)C)NC(=O)[C@H](C)NC(=O)[C@H](C)NC(=O)[C@H](Cc2ccc(O)cc2)NC(=O)[C@H](CCC(=O)O)NC1=O)[C@@H](C)O [Staplin-Control, reference compound] (Ac-TSA[R8]EYAALA[S5]-NH2; staple 4-11)
- IC50 [7, 12]: > 10000 nM
- IC50 [1, 12]: > 10000 nM

- thermal shift (ΔTm50) [9]: 1.52 °C
Compound: ATSP-7041 (peptide)

- ΔTm50 [5]: 5.48 °C
- ΔTm50 [9]: 6.76 °C
Compound: Staplin (peptide)

- thermal shift less than that of unlabelled Staplin-2 [5]: 2.99 °C
- thermal shift less than that of unlabelled Staplin-2 [9]: 2.71 °C
Compound: FAM-labelled Staplin-2 (peptide)

- mean thermal shift in whole cell CETSA as percent of that in cell lysate CETSA [10]: 33%
- ΔΔTm50 (whole cell CETSA against cell lysate CETSA) [10]: 3.58 °C
- mean thermal shift in whole cell CETSA as percent of that in cell lysate CETSA [11]: 40%
- ΔΔTm50 (whole cell CETSA against cell lysate CETSA) [11]: 4.01 °C
- ΔTm50 [5]: 5.44 °C
- ΔTm50 [9]: 6.58 °C
Compound: Staplin-2 (peptide)

Reference: PMC4498326, “Assessing the Efficacy of Mdm2/Mdm4-Inhibiting Stapled Peptides Using Cellular Thermal Shift Assays” (Scientific Reports, 2015)
